Experimental data: PubChem BioAssay (NCI)
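The compound was tested at five concentrations on cells cultured in 96-well plates, with a 48-hour exposure period. GI50 = concentration required for 50% inhibition of growth. TGI denotes the concentration required for complete inhibition of growth.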

Tests used:
Test in all cases: NCI tumour cell line growth inhibition, 48 h
NCI-H226 lung = system: NCI-H226 lung
NCI-H23 lung = system: NCI-H23 lung
NCI-H460 lung = system: NCI-H460 lung
NCI-H522 lung = system: NCI-H522 lung
NCI/ADR-RES ovarian = system: NCI/ADR-RES ovarian
OVCAR-3 ovarian = system: OVCAR-3 ovarian
OVCAR-4 ovarian = system: OVCAR-4 ovarian
OVCAR-5 ovarian = system: OVCAR-5 ovarian
OVCAR-8 ovarian = system: OVCAR-8 ovarian
PC-3 prostate = system: PC-3 prostate
RPMI-8226 leukemia = system: RPMI-8226 leukemia
RXF 393 renal = system: RXF 393 renal
SF-268 CNS = system: SF-268 CNS
SF-295 CNS = system: SF-295 CNS
SF-539 CNS = system: SF-539 CNS
SK-MEL-2 melanoma = system: SK-MEL-2 melanoma
SK-MEL-28 melanoma = system: SK-MEL-28 melanoma
SK-MEL-5 melanoma = system: SK-MEL-5 melanoma
SK-OV-3 ovarian = system: SK-OV-3 ovarian
SN12C renal = system: SN12C renal
SNB-19 CNS = system: SNB-19 CNS
SNB-75 CNS = system: SNB-75 CNS
SR leukemia = system: SR leukemia
SW-620 colon = system: SW-620 colon
T-47D breast = system: T-47D breast
TK-10 renal = system: TK-10 renal
U251 CNS = system: U251 CNS
UACC-257 melanoma = system: UACC-257 melanoma
UACC-62 melanoma = system: UACC-62 melanoma
UO-31 renal = system: UO-31 renal

`Nc1nc2cc(-c3ccc4ncnc(NCc5ccccc5)c4c3)ccc2o1` was tested, and the TGI (NCI-H226 lung) was 39.4 µM, the GI50 (NCI-H23 lung) was 10.9 µM and the TGI (NCI-H23 lung) was 35.6 µM. For the same compound, the GI50 (NCI-H460 lung) was 6.48 µM, the TGI (NCI-H460 lung) was 27.7 µM and the GI50 (NCI-H522 lung) was 8.72 µM. It also gave a TGI (NCI-H522 lung) of 38.4 µM, a GI50 (NCI/ADR-RES ovarian) of 11 µM and a TGI (NCI/ADR-RES ovarian) of 49.5 µM. It also gave a GI50 (OVCAR-3 ovarian) of 3.49 µM, a TGI (OVCAR-3 ovarian) of 21.6 µM and a GI50 (OVCAR-4 ovarian) of 7 µM. It also gave a TGI (OVCAR-4 ovarian) of 28.1 µM, a GI50 (OVCAR-5 ovarian) of 4.03 µM and a TGI (OVCAR-5 ovarian) of 16.9 µM. The GI50 (OVCAR-8 ovarian) was 3.41 µM, the TGI (OVCAR-8 ovarian) was 17.7 µM and the GI50 (PC-3 prostate) was 12.7 µM. It also gave a TGI (PC-3 prostate) of 31.9 µM, a GI50 (RPMI-8226 leukemia) of 3.83 µM and a TGI (RPMI-8226 leukemia) of 22.3 µM. The GI50 (RXF 393 renal) was 3.62 µM, the TGI (RXF 393 renal) was 16.3 µM and the GI50 (SF-268 CNS) was 10.9 µM. The TGI (SF-268 CNS) was 43.4 µM, the GI50 (SF-295 CNS) was 14.1 µM and the TGI (SF-295 CNS) was 35 µM. It also gave a GI50 (SF-539 CNS) of 4.08 µM, a TGI (SF-539 CNS) of 14.9 µM and a GI50 (SK-MEL-2 melanoma) of 14.7 µM. The TGI (SK-MEL-2 melanoma) was 30.6 µM, the GI50 (SK-MEL-28 melanoma) was 12.4 µM and the TGI (SK-MEL-28 melanoma) was 24.8 µM. The GI50 (SK-MEL-5 melanoma) was 12.2 µM, the TGI (SK-MEL-5 melanoma) was 28.1 µM and the GI50 (SK-OV-3 ovarian) was 3.26 µM. The TGI (SK-OV-3 ovarian) was 12.1 µM, the GI50 (SN12C renal) was 5.14 µM and the TGI (SN12C renal) was 18.3 µM. For the same compound, the GI50 (SNB-19 CNS) was 10.8 µM, the TGI (SNB-19 CNS) was 25.4 µM and the GI50 (SNB-75 CNS) was 2.15 µM. For the same compound, the TGI (SNB-75 CNS) was 5.24 µM, the GI50 (SR leukemia) was 10.3 µM and the TGI (SR leukemia) was 27.6 µM. It also gave a GI50 (SW-620 colon) of 9.63 µM, a TGI (SW-620 colon) of 31.1 µM and a GI50 (T-47D breast) of 10.4 µM. The TGI (T-47D breast) was 35.3 µM, the GI50 (TK-10 renal) was 2.98 µM and the TGI (TK-10 renal) was 16.1 µM. The GI50 (U251 CNS) was 10.4 µM, the TGI (U251 CNS) was 32.6 µM and the GI50 (UACC-257 melanoma) was 14.4 µM. The TGI (UACC-257 melanoma) was 32.2 µM, the GI50 (UACC-62 melanoma) was 14.7 µM and the TGI (UACC-62 melanoma) was 29.6 µM. For the same compound, the GI50 (UO-31 renal) was 4.01 µM and the TGI (UO-31 renal) was 18.3 µM.
